These results are taken from patent US11274144B2, “Compositions and methods for the removal of biofilms” (priority 2013, dated 2022).

One data set relates to NTHI biofilms. The data set is described as follows: synergism on pre-formed NTHI biofilms (FIGS. 14A-14C). In kind it is cell-based. The method, then:
To this end the ability to induce augmented structural destabilization of pre-formed NTHI biofilms was assessed when a sub-optimal concentration of anti-IHF was used along with one of each of three unique reagents.

The target in a further data set is T1, IHF (Escherichia coli, UniProt P0A6X7+P0A6Y1).
T1 construct: IHF promoter purified from E. coli K12 (the full length combination of both IHF subunits); made in house; host or cells: E. coli overproducing strains (lambda PL promoter plasmids, e.g. K5746 / E738)
Nature of the data set: antibody response after subcutaneous immunization of chinchillas (Western blot, ELISA). In kind it is in vivo, E. coli. The conditions noted are these: chinchilla. The source says: Each animal received a priming dose followed by two identical boosts delivered at 30-day intervals.
In general terms: Immunoblotting shows a protein as a band on a membrane.

The test system of a further data set is dsDNA. Conditions: DNA (10 μM) to IHF (5 μM); FIG. 11. The method, then:
Middle ears were again subsequently scored from 0 to 4+ for disease severity upon completion of the study. To better assure that the IHF and DNA remained in complex for immunization, synthetic oligonucleotides identical to those used in the published co-crystallization study (see for e.g., Rice et al. (1996) Cell 87(7): 1295-1306) of a high affinity IHF binding site from the bacteriophage lambda recombination site attP at a molar ratio of 2:1 [DNA (10 μM) to IHF (5 μM)] was used.

For the next data set, the system named is NTHI strain 86-028NP. The method, then: 48 adults were ordered from Rauscher's Chinchilla Ranch (LaRue, Ohio) and were acclimated to the vivarium for 7-10 days prior to the beginning of the study. Prior to TB [transbullar or direct challenge into the middle ear cavity] challenge, baseline otoscopy and tympanometry were performed as well as a limited volume prebleed to collect serum. Chinchillas were anesthetized and 300 μl of NTHI (strain #86-028NP) suspension containing approximately 1000 cfu were introduced into the middle ear space via transbullar challenge. Animals were allowed to recover, then monitored daily for adverse reactions as per IACUC accepted animal use protocols. Routine otoscopy and tympanometry were performed every 2-3 days throughout the study.
Four days after challenge (day +4), chinchillas were anesthetized and a CT scan was performed to visualize biofilms present within the middle ear and to obtain pre-immunization images. The surface of the pinnae were cleaned and hydrated by wiping with a sterile gauze pad moistened with sterile pyrogen free saline. After ˜2 minutes (to allow the pinnae to dry), 50 μl of either the dmLT, IHF (purified E. coli IHF according to Experiment 1)+dmLT, or IHF+rsPiLA+dmLT solution will be added to the pinna and gently massaged in. Three chinchillas per cohort were sacrificed and tissues/samples collected (on days +4, and +11) to begin to determine mechanism of action.
Eleven days after challenge (day +11), the secondary immunization occurred as described above wherein the pinnae are cleaned/hydrated and immunogens were topically administered. Three chinchillas per cohort were sacrificed and tissues/samples collected to begin to determine mechanism of action.
Eighteen days after challenge (day +18), chinchillas were anesthetized and a CT scan were performed to identify any biofilms present, as well as to compare to the pre-immunization CT scans. The animals were then bled to collect serum and euthanized. […] Images were collected and the bulla were washed with 1 ml of sterile saline and re-imaged. The mucosa, along with any biofilm present, were collected from the right bulla and placed in a preweighed tube. These tissues were homogenized, serially diluted, and plated to determine cfu NTHI/mg wet weight tissue. The left bullae were filled with OCT compound and snap frozen for histological analysis.
Images of the left and right middle ear cavities, with resident biofilms, were scrambled and two images per animal were compiled into a single file for ranking by blinded evaluators. The relative amount of biomass remaining within the middle ear of each animal was ranked on a 0 to 4+ scale by blinded reviewers using the scale shown in Table 6 below. Titer ELISAs, cytokine arrays, and Biacore were run on the serum as well as on the collected middle ear effusions. The OCT embedded middle ears were sectioned and stained either for basic morphology and architecture (H&E) or for the presence of IHF using immunohistochemistry and/or immunofluorescence.
For the second animal immunization study, twenty adult chinchillas (body mass between 500-700 g), shown to have no evidence of middle ear disease by tympanometry and video otoscopy, were enrolled and divided into four cohorts of 5 animals each. All animals were again challenged transbullarly with approximately 1000 CFU NTHI strain 86-028NP per bulla. Four days later, after a biofilm formed in the middle ear cavities of these animals, they were immunized by a transcutaneous route (TCI) as described above. Formulations consisted of either: 10 μg IHF admixed with 10 μg dmLT, 10 μg IHF that had been pre-bound to DNA+dmLT, DNA+dmLT, or 10 μg dmLT alone.
Middle ears were again subsequently scored from 0 to 4+ for disease severity upon completion of the study.

The nature of data set [1]: BIACORE epitope mapping with antiserum of chinchillas immunized with native IHF. Conditions: BIACORE biosensor. In kind it is binding, chinchilla. The source says: (§1) To test this hypothesis, additional cohorts of chinchillas were immunized with either native full length IHF from E. coli (obtained from Nash) or with native full length IHF from E. coli (obtained from Nash) that had been complexed to an excess of double stranded DNA in order to best mimic how it would be presented in nature.
In general terms: Surface plasmon resonance follows binding to a sensor surface in real time, without labels.

Data set [2] is described as follows: BIACORE epitope mapping with antiserum of chinchillas immunized with IHF pre-complexed to DNA. In kind it is binding, chinchilla. The conditions noted are these: BIACORE biosensor.
Text: as §1

Data set [3] deals with Haemophilus influenzae IHF (Haemophilus influenzae, UniProt P43723). Conditions: also known as IhfA5; cited from earlier work.
The target of another data set is Staphylococcus aureus HU (Staphylococcus aureus, UniProt Q5HFV0). The conditions noted are these: cited from earlier work.
[4] abbreviates: amoxicillin 64 μg/ml, IHF antisera 1:50 dilution.
The mark [5] stands for this setting: first study, transcutaneous immunization.

T1 sequence (P0A6X7 2-99): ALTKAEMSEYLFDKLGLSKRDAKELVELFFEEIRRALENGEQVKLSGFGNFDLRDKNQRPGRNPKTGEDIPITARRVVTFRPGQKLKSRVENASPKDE
T1 sequence (P0A6Y1 whole entry): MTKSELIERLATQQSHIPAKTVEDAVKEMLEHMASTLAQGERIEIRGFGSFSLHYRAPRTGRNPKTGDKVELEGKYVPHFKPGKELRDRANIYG

In the case of `CC1(C)S[C@@H]2[C@H](NC(=O)[C@H](N)c3ccc(O)cc3)C(=O)N2[C@H]1C(=O)O` [amoxicillin], in the data set on NTHI biofilms (setting [4]), the “bacterial cell death in biofilm (vital dye, FIG. 14C)” value is “limited bacterial cell death” and the “effect on architecture/height of pre-formed NTHI biofilm (FIG. 14C)” value is reported as “no measurable effect on the architecture”.

On to “E. coli IHF: purified E. coli integration host factor, full length combination of both subunits, used as immunogen with adjuvant”, for which the “reciprocal titer versus isolated IHF by ELISA” value with IHF (SQ immunization 10 μg with MPL, pre-immune reciprocal titers 100) is recorded as 8000. For the same molecule, the “antibodies recognizing IHF by Western blot” value with IHF (SQ immunization with MPL, FIG. 13) is listed as “strong immune response to isolated IHF”. The “binding of dsDNA (reduced mobility)” value in the data set with dsDNA is given as “bound dsDNA”. The “mean score for remaining biomass within the middle ears” value in the data set with NTHI strain 86-028NP (first study, 2 weekly transcutaneous immunizations with dmLT adjuvant, day 18 after challenge, adjuvant only 2.8, 0 to 4+ scale) is on record as 1.5. Further, in the data set on NTHI strain 86-028NP (first study, homogenized biomass cultured on chocolate agar, vs adjuvant alone, FIG. 10B), the “bacterial load within remaining biomass” value is listed as “statistically significant reduction of bacterial load”. Besides, in the data set on NTHI strain 86-028NP (setting [5]), the “immune response to immunization” value was “strong local and systemic immune response”; the “secondary sequelae of immunization noted upon necropsy” value is “no animal presented with obvious secondary sequelae”. Further, in the data set on NTHI strain 86-028NP (in vivo), the “resolution of experimental otitis media” value was “eradicating experimental otitis media significantly earlier than controls”. Further, the “mean residual middle ear biomass score” value in the data set on NTHI strain 86-028NP (second study, TCI, 10 μg with 10 μg dmLT, adjuvant alone 2.2, 0 to 4+ scale, FIG. 12) turned out to be 0.9.

For “RPGRNPKTGDVVPVSARRVV (listed as Haemophilus influenzae) [A5, amino acids 61 to 80 of IHF]”, the “immune recognition of 20-mer peptides” value in data set [1] was “greatest immune recognition”.

Consider “FLEEIRLSLESGQDVKLSGF (listed as Haemophilus influenzae) [A3, amino acids 31 to 50 of IHF]”, for which the “immune recognition of 20-mer peptides” value in data set [2] was “greatest recognition”.

Consider “RGFGSFSLHHRQPRLGRNPK (listed as Haemophilus influenzae) [B4, 46 to 65 of IHF]”, for which the “immune recognition of 20-mer peptides” value in data set [1] was “greatest immune recognition”.

For the molecule DNase, the “effect on pre-formed NTHI biofilm (FIG. 14A)” value in the data set on NTHI biofilms (DNase at sub-optimal concentration, anti-IHF 1:200 dilution) was “marginal effect”.

B1: TRL295: antibody, HC SEQ ID NO: 413, LC SEQ ID NO: 414 (antibody, V domains shown)
VH: QVQLVESGGGLVQPGGSLRLSCAASGFPFSSYAMSWVRQAPGKGLEWVSAISGNGADSYYADSVKGRFTTSRDKSKNTVYLQMNRLRAEDTAVYYCAKDMRRYHYDSSGLHFWGQGTLVTVSS
VL: DIELTQAPSVSVYPGQTARITCSGDALPKQYAYWYQQKPGQAPVVVIYKDSERPSGISERFSGSSSGTTVTLTISGVQAGDEADYYCQSVDTSVSYYVVFGGGTKLTVL
Consider B1, for which, in data set [3], the epitope bound result is on record as “bind to residues 61-80”.

B2: TRL1330: antibody, HC SEQ ID NO: 439, LC SEQ ID NO: 440 (antibody, V domains shown)
VH: QVQLVESGTEVKNPGASVKVSCTASGYKFDEYGVSWVRQSPGQGLEWMGWISVYNGKTNYSQNFQGRLTLTTETSTDTAYMELTSLRPDDTAVYYCATDKNWFDPWGPGTLVTVSS
VL: DIVLTQSPSASGSPGQSITISCTGTNTDYNYVSWYQHHPGKAPKVIIYDVKKRPSGVPSRFSGSRSGNTATLTVSGLQTEDEADYYCVSYADNNHYVFGSGTKVTVL
B2: the “binding for fragment […]” value with Staphylococcus aureus HU (SEQ ID NO: 455) is on record as “high affinity binding”.

B3: TRL1338: antibody, HC SEQ ID NO: 445, LC SEQ ID NO: 446 (antibody, V domains shown)
VH: QVQLTLRESGPTLVKPTQTLTLTCTFSGFSLSTNGVGVGWIRQPPGKALEWLAIIYWDDDKRYSPSLKSRLTITKDTSKNQVVLTLTNMDPVDTGTYYCAHILGASNYWTGYLRYYFDYWGQGTLVTVST
VL: DIEMTQSPSVSVSPGQTARITCSGEPLAKQYAYWYQQKSGQAPVVVIYKDTERPSGIPERFSGSSSGTTVTLTISGVQAEDEADYHCESGDSSGTYPVFGGGTKLTVL
Regarding B3, the “binding for fragment VPAFKAGKALKDAVK” value with Staphylococcus aureus HU (SEQ ID NO: 456) is on record as “high affinity binding”.
